This passage reports IC50, Activity and EC50 results from ChEMBL document CHEMBL1149429, “Privileged structure-based quinazolinone natural product-templated libraries: identification of novel tubulin polymerization inhibitors” (Bioorg Med Chem Lett, 2006).

The subject of one experiment is MDA-MB-231. The experiment can be described thus: Antiproliferative activity against MDA-MB-231 cell line by MTS assay. In kind it is functional, cell-based. Conditions: Homo sapiens. A general note: Tetrazolium dyes change colour on reduction, which living cells bring about.
In a further experiment the test system is HMEC. The experiment is described as follows: Antiproliferative activity against HMEC cell line by MTS assay. In kind it is functional, cell-based. Conditions: Homo sapiens.
Another experiment has as its target Tubulin (Homo sapiens) (UniProt P68371+Q9H4B7+P0DPH7+P68366+Q13509+Q71U36+P04350+Q3ZCM7+P07437+P68363+Q9BQE3+Q6PEY2+Q13885+Q9BVA1+Q9BUF5). The experiment can be described thus: Inhibitory activity against tubulin polymerization. In kind it is protein-complex assay.
In a further experiment the test system is SF-268. The experiment can be described thus: Antiproliferative activity against SF268 cell line by MTS assay. In kind it is functional, cell-based. The following applies: Homo sapiens.
The next experiment has as its target Tubulin. The experiment can be described thus: Effect on induction of mitotic arrest by phosphohistone H3 (pH3) assay. In kind it is functional.
The next experiment deals with DU-145. The experiment can be described thus: Antiproliferative activity against DU145 cell line by MTS assay. In kind it is functional, cell-based. The following applies: Homo sapiens.
For the next experiment, the system named is NCI-H460. The experiment is described as follows: Antiproliferative activity against NCI-H460 cell line by MTS assay. In kind it is functional, cell-based. The following applies: Homo sapiens.
For the next experiment, the system named is A549. The experiment is described as follows: Antiproliferative activity against A549 cell line by MTS assay. The following applies: Homo sapiens. In kind it is functional, cell-based.

Active and inactive are the calls of the source. The calls are words filed in the database; no cut-off is given here. Bounds are passed on as bounds.

`COc1cc(/C=C2\CCCn3c2nc2c(O)cccc2c3=O)cc(OC)c1O`: the IC50 in the experiment on MDA-MB-231 was 7.72 µM; in the experiment with HMEC, over 20 µM; in the experiment on SF-268, 4.76 µM; with DU-145 it was 3.11 µM; in the experiment with NCI-H460, 1.36 µM; in the experiment with A549, 5.49 µM. Further, the outcome at Tubulin (Homo sapiens) was Active. Further, at Tubulin, the EC50 came to 1.16 µM.
As to `COc1cc(/C=C2\CCCn3c2nc2c(OC)cccc2c3=O)cc(OC)c1O`, the half-inhibitory concentration (IC50) was 1.3 µM with MDA-MB-231; over 20 µM with HMEC; 0.79 µM in the experiment on SF-268; 0.51 µM in the experiment with DU-145; 0.33 µM in the experiment on NCI-H460; 0.69 µM in the experiment with A549. Moreover, the result on Tubulin (Homo sapiens) was Active. The molecule also came in with an EC50 at Tubulin of 0.54 µM.
On to `COc1cc(/C=C2\CCCn3c2nc2ccc(I)cc2c3=O)cc(OC)c1O`, for which the IC50 is over 20 µM with MDA-MB-231; over 20 µM in the experiment with HMEC; 11.2 µM with SF-268; 10.3 µM with DU-145; 4.31 µM with NCI-H460; 10.6 µM in the experiment on A549. Besides, the outcome on Tubulin (Homo sapiens) was Active. At Tubulin, this molecule returned an EC50 of 10.6 µM.
On to `COc1cc(/C=C2\CCCn3c2nc2ccc(C)cc2c3=O)cc(OC)c1O`, for which the IC50 with MDA-MB-231 is over 20 µM; in the experiment on HMEC, over 20 µM; in the experiment on SF-268 it was 11.5 µM; in the experiment with DU-145, 14.7 µM; in the experiment with NCI-H460, 3.2 µM; in the experiment on A549, over 20 µM. The outcome on Tubulin (Homo sapiens) was Active.
As to `COc1cc(/C=C2\CCCn3c2nc2c(C)cccc2c3=O)cc(OC)c1O`, the IC50 with MDA-MB-231 is 11.2 µM; with HMEC, over 20 µM; in the experiment on SF-268, 3.48 µM; with DU-145, 2.63 µM; with NCI-H460, 1.5 µM; in the experiment on A549 it was 3.17 µM. Besides, the outcome on Tubulin (Homo sapiens) was Active. For the same molecule, the EC50 at Tubulin worked out at 1.64 µM.
For the molecule `COc1cc(/C=C2\CCCn3c2nc2ccc(O)cc2c3=O)cc(OC)c1O`, the IC50 in the experiment on MDA-MB-231 was over 20 µM; in the experiment with HMEC, over 20 µM; in the experiment with SF-268, over 20 µM; in the experiment on DU-145, over 20 µM; with NCI-H460 it was 14.9 µM; in the experiment with A549, over 20 µM. For the same molecule, the outcome at Tubulin (Homo sapiens) was Active.
Take `COc1cc(/C=C2\CCCn3c2nc2ccc(Cl)cc2c3=O)cc(OC)c1O`: the IC50 was over 20 µM in the experiment on MDA-MB-231; over 20 µM in the experiment on HMEC; 18.6 µM with SF-268; 18.3 µM with DU-145; 8.63 µM in the experiment with NCI-H460; over 20 µM in the experiment with A549. Moreover, the result at Tubulin (Homo sapiens) was Active.
For the molecule `COc1cc(/C=C2\CCCn3c2nc2ccc(F)cc2c3=O)cc(OC)c1O`, the IC50 in the experiment with MDA-MB-231 is over 20 µM; in the experiment with HMEC it was over 20 µM; in the experiment on SF-268 it was 14.1 µM; in the experiment on DU-145 it was 14.2 µM; in the experiment with NCI-H460 it was 3.91 µM; with A549 it was 9.43 µM. Also, the result at Tubulin (Homo sapiens) was Active.
Turning to `COc1cc(/C=C2\CCCn3c2nc2c(C)cc(C)cc2c3=O)cc(OC)c1O`, the half-inhibitory concentration (IC50) with MDA-MB-231 was 2.09 µM; with HMEC, over 20 µM; in the experiment on SF-268, 0.83 µM; in the experiment on DU-145, 0.79 µM; in the experiment on NCI-H460, 0.24 µM; with A549, 0.55 µM. Moreover, at Tubulin (Homo sapiens), the result was Active. Moreover, on Tubulin, the response was half-maximal at 0.26 µM (EC50).
On to `COc1ccc2nc3n(c(=O)c2c1)CCC/C3=C\c1cc(OC)c(O)c(OC)c1`, for which the IC50 in the experiment on MDA-MB-231 is over 20 µM; in the experiment on HMEC it was over 20 µM; with SF-268, over 20 µM; with DU-145, 10.3 µM; with NCI-H460, 3.71 µM; with A549, over 20 µM. Besides, the result on Tubulin (Homo sapiens) was Active.
In the case of `COc1cc(/C=C2\CCCn3c2nc2ccc(Br)cc2c3=O)cc(OC)c1O`, the IC50 was over 20 µM in the experiment with MDA-MB-231; over 20 µM in the experiment on HMEC; 6.72 µM with SF-268; 8.47 µM in the experiment on DU-145; 1.98 µM in the experiment with NCI-H460; 11.7 µM in the experiment with A549. Also, the result at Tubulin (Homo sapiens) was Active. The same molecule returned an EC50 on Tubulin of 2.38 µM.
`CC(=O)O[C@H]1C(=O)[C@@]2(C)[C@H]([C@H](OC(=O)c3ccccc3)[C@]3(O)C[C@H](OC(=O)[C@H](O)[C@@H](NC(=O)c4ccccc4)c4ccccc4)C(C)=C1C3(C)C)[C@]1(OC(C)=O)CO[C@@H]1C[C@@H]2O` [PACLITAXEL] yielded an EC50 on Tubulin of 0.031 µM. The IC50 was 0.012 µM in the experiment on NCI-H460 and 0.013 µM with A549.

A word on the IC50: it is the point on the concentration scale where inhibition reaches its midpoint. A low value points to greater potency in that assay. In general, EC50 refers to the midpoint of the concentration-response curve. Read a high EC50 as a need for much substance.
